In the test the target is T1, PLK2 (Homo sapiens, UniProt Q9NYY3).
T1 construct: purchased Thermo Fisher Scientific (Life Technologies) SelectScreen
As to the kind of experiment: SelectScreen Z'LYTE. The format is biochemical. In short, it runs like this:
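NU5455 was profiled across the SelectScreen Broad panel of kinase activity and binding assays. Z'LYTE reactions such as CSF1R ran at apparent Km ATP, while the Adapta CAMK1 assay used ATP listed as 10. Values are given as percent.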

In PMC6934184, “Selective DNA-PKcs inhibition extends the therapeutic index of localized radiotherapy and chemotherapy” (The Journal of Clinical Investigation, 2019) one finds inhibition data, which are given here for 1 compound.

A word on the inhibition: it is the percentage by which the read-out fell short of the control. A low value points to a response near the control.

T1 sequence (Q9NYY3 whole entry): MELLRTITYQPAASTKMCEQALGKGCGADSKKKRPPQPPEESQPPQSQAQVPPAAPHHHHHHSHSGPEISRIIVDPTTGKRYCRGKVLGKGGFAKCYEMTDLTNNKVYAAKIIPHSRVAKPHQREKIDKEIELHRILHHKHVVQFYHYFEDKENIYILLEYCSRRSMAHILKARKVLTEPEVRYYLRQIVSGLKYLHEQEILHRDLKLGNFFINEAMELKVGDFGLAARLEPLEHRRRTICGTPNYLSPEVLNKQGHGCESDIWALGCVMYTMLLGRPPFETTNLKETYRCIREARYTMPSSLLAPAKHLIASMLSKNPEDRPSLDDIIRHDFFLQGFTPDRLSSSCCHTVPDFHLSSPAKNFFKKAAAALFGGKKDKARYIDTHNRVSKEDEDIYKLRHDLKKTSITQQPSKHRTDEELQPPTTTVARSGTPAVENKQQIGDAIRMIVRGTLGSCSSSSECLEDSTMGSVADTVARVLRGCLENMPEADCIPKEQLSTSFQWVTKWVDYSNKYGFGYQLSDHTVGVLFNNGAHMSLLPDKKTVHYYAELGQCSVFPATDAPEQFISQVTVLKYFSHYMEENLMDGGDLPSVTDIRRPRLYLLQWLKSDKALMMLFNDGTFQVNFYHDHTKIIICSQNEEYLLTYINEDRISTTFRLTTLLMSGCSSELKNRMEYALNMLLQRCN

Consider `CN(C(=O)CN1CCOCC1)c1ccc2sc3c(-c4cccc5c(=O)cc(N6CC7CCC(C6)O7)oc45)cccc3c2c1` [NU5455], for which the inhibition at 1 µM turned out to be 14.1%.
